Measured values from patent US20240000872A1, “NOVEL BACTERIOPHAGE THAT LYSES ACINETOBACTER GENUS BACTERIA HAVING RESISTANCE TO ANTIBIOTICS” (priority 2020, published 2024).

Test system: Acinetobacter baumannii strains
Test: Antibiotic susceptibility test (CLSI disk diffusion test method, read per CLSI 2016)
Assay type: cell-based
Design: antibiotic susceptibility test value / susceptibility test value (number given before S/I/R) / antibiotic susceptibility value: unit not given here
Description: Strain identification was performed using a kit such as AT 32 GN system (bioMérieux, Marcy l'Etoile, France). […] In Table 2 below, S, I, and R are the results obtained by evaluating susceptibility to the antibacterial agents, in which ‘S’ means susceptible, ‘I’ means intermediate, and ‘R’ means resistant.
Strain identification was performed using a kit such as ATB 32 GN system (bioMédrieux, Marcy l'Etoile, France). […] In Table 6 below, S, I, and R are the results obtained by evaluating susceptibility to the antibacterial agents, in which ‘S’ means susceptible, ‘I’ means intermediate, and ‘R’ means resistant.
Strain identification was performed using a kit such as ATB 32 GN system (bioMérieux, Marcy l'Etoile, France). […] In Table 10 below, S, I, and R are the results obtained by evaluating susceptibility to the antibacterial agents, in which ‘S’ means susceptible, T means intermediate, and ‘R’ means resistant.

ampicillin-sulbactam
I: antibiotic susceptibility class (host strain YMC14/01/P224) | antibiotic susceptibility class (host strain YMC14/01/P728) | antibiotic susceptibility class (host strain YMC14/01/R130) | antibiotic susceptibility class (host strain YMC14/01/R767) | antibiotic susceptibility class (host strain YMC14/01/R921) | antibiotic susceptibility class (host strain YMC14/01/R958) | antibiotic susceptibility class (host strain YMC14/01/R1006) | antibiotic susceptibility class (host strain YMC14/01/R1199) | antibiotic susceptibility class (host strain YMC14/01/R1659) | antibiotic susceptibility class (host strain YMC14/01/R1722) | antibiotic susceptibility class (host strain YMC14/01/R1752) | antibiotic susceptibility class (host strain YMC14/01/R2429) | antibiotic susceptibility class (host strain YMC14/01/R2572) | antibiotic susceptibility class (host strain YMC14/01/R2855) | antibiotic susceptibility class (host strain YMC14/01/R3007) | antibiotic susceptibility class (host strain YMC14/01/R3317) | antibiotic susceptibility class (host strain YMC14/01/R3574) | antibiotic susceptibility class (host strain YMC14/02/L18) | antibiotic susceptibility class (host strain YMC14/02/R1860) | antibiotic susceptibility class (host strain YMC14/02/R2417) | antibiotic susceptibility class (host strain YMC14/02/R3419) | antibiotic susceptibility class (host strain YMC14/02/U1607) | antibiotic susceptibility class (host strain YMC14/03/L9) | antibiotic susceptibility class (host strain YMC14/03/R217) | antibiotic susceptibility class (host strain YMC14/03/R2144) | antibiotic susceptibility class (host strain YMC14/03/U4616) | susceptibility category (S/I/R) (host strain YMC14/08/R1169) | susceptibility category (S/I/R) (host strain YMC15/02/T28) | susceptibility category (S/I/R) (host strain YMC15/03/R1604) | susceptibility category (S/I/R) (host strain YMC15/09/R1869)
R: antibiotic susceptibility class (host strain YMC14/01/C29) | antibiotic susceptibility class (host strain YMC14/01/IP122) | antibiotic susceptibility class (host strain YMC14/01/L8) | antibiotic susceptibility class (host strain YMC14/01/P31) | antibiotic susceptibility class (host strain YMC14/01/P117) | antibiotic susceptibility class (host strain YMC14/01/P727) | antibiotic susceptibility class (host strain YMC14/01/R160) | antibiotic susceptibility class (host strain YMC14/01/R198) | antibiotic susceptibility class (host strain YMC14/01/R257) | antibiotic susceptibility class (host strain YMC14/01/R270) | antibiotic susceptibility class (host strain YMC14/01/R443) | antibiotic susceptibility class (host strain YMC14/01/R451) | antibiotic susceptibility class (host strain YMC14/01/R560) | antibiotic susceptibility class (host strain YMC14/01/R617) | antibiotic susceptibility class (host strain YMC14/01/R671) | antibiotic susceptibility class (host strain YMC14/01/R732) | antibiotic susceptibility class (host strain YMC14/01/R904) | antibiotic susceptibility class (host strain YMC14/01/R905) | antibiotic susceptibility class (host strain YMC14/01/R941) | antibiotic susceptibility class (host strain YMC14/01/R3129) | antibiotic susceptibility class (host strain YMC14/01/R3474) | antibiotic susceptibility class (host strain YMC14/01/U318) | antibiotic susceptibility class (host strain YMC14/02/P47) | antibiotic susceptibility class (host strain YMC14/02/R2599) | antibiotic susceptibility class (host strain YMC14/02/R2781) | antibiotic susceptibility class (host strain YMC14/03/R122) | antibiotic susceptibility class (host strain YMC14/04/R1078) | antibiotic susceptibility S/I/R (host strain YMC15/02/R436) | susceptibility category (S/I/R) (host strain YMC15/02/R436) | antibiotic susceptibility S/I/R (host strain YMC16/01/P11) | susceptibility category (S/I/R) (host strain YMC16/01/P11) | antibiotic susceptibility S/I/R (host strain YMC16/01/R123)
2: antibiotic susceptibility test value (host strain YMC14/01/U313)
4: antibiotic susceptibility test value (host strain YMC14/01/R2945) | antibiotic susceptibility test value (host strain YMC14/04/R1080)
32: antibiotic susceptibility test value (host strain YMC14/01/C29) | antibiotic susceptibility test value (host strain YMC14/01/IP122) | antibiotic susceptibility test value (host strain YMC14/01/L8) | antibiotic susceptibility test value (host strain YMC14/01/P31) | antibiotic susceptibility test value (host strain YMC14/01/P117) | antibiotic susceptibility test value (host strain YMC14/01/P727) | antibiotic susceptibility test value (host strain YMC14/01/R160) | antibiotic susceptibility test value (host strain YMC14/01/R198) | antibiotic susceptibility test value (host strain YMC14/01/R257) | antibiotic susceptibility test value (host strain YMC14/01/R270) | antibiotic susceptibility test value (host strain YMC14/01/R443) | antibiotic susceptibility test value (host strain YMC14/01/R451) | antibiotic susceptibility test value (host strain YMC14/01/R560) | antibiotic susceptibility test value (host strain YMC14/01/R617) | antibiotic susceptibility test value (host strain YMC14/01/R671) | antibiotic susceptibility test value (host strain YMC14/01/R732) | antibiotic susceptibility test value (host strain YMC14/01/R904) | antibiotic susceptibility test value (host strain YMC14/01/R905) | antibiotic susceptibility test value (host strain YMC14/01/R941) | antibiotic susceptibility test value (host strain YMC14/01/R3129) | antibiotic susceptibility test value (host strain YMC14/01/R3474) | antibiotic susceptibility test value (host strain YMC14/01/U318) | antibiotic susceptibility test value (host strain YMC14/02/P47) | antibiotic susceptibility test value (host strain YMC14/02/R2599) | antibiotic susceptibility test value (host strain YMC14/02/R2781) | antibiotic susceptibility test value (host strain YMC14/03/R122) | antibiotic susceptibility test value (host strain YMC14/04/R1078) | antibiotic susceptibility value (host strain YMC15/02/R436) | susceptibility test value (number given before S/I/R) (host strain YMC15/02/R436) | antibiotic susceptibility value (host strain YMC16/01/P11) | susceptibility test value (number given before S/I/R) (host strain YMC16/01/P11)
16: antibiotic susceptibility test value (host strain YMC14/01/P224) | antibiotic susceptibility test value (host strain YMC14/01/P728) | antibiotic susceptibility test value (host strain YMC14/01/R130) | antibiotic susceptibility test value (host strain YMC14/01/R767) | antibiotic susceptibility test value (host strain YMC14/01/R921) | antibiotic susceptibility test value (host strain YMC14/01/R958) | antibiotic susceptibility test value (host strain YMC14/01/R1006) | antibiotic susceptibility test value (host strain YMC14/01/R1199) | antibiotic susceptibility test value (host strain YMC14/01/R1659) | antibiotic susceptibility test value (host strain YMC14/01/R1722) | antibiotic susceptibility test value (host strain YMC14/01/R1752) | antibiotic susceptibility test value (host strain YMC14/01/R2429) | antibiotic susceptibility test value (host strain YMC14/01/R2572) | antibiotic susceptibility test value (host strain YMC14/01/R2855) | antibiotic susceptibility test value (host strain YMC14/01/R3007) | antibiotic susceptibility test value (host strain YMC14/01/R3317) | antibiotic susceptibility test value (host strain YMC14/01/R3574) | antibiotic susceptibility test value (host strain YMC14/02/L18) | antibiotic susceptibility test value (host strain YMC14/02/R1860) | antibiotic susceptibility test value (host strain YMC14/02/R2417) | antibiotic susceptibility test value (host strain YMC14/02/R3419) | antibiotic susceptibility test value (host strain YMC14/02/U1607) | antibiotic susceptibility test value (host strain YMC14/03/L9) | antibiotic susceptibility test value (host strain YMC14/03/R217) | antibiotic susceptibility test value (host strain YMC14/03/R2144) | antibiotic susceptibility test value (host strain YMC14/03/U4616) | antibiotic susceptibility value (host strain YMC14/08/R1169) | susceptibility test value (number given before S/I/R) (host strain YMC14/08/R1169) | antibiotic susceptibility value (host strain YMC15/02/T28) | susceptibility test value (number given before S/I/R) (host strain YMC15/02/T28) | antibiotic susceptibility value (host strain YMC15/03/R1604) | susceptibility test value (number given before S/I/R) (host strain YMC15/03/R1604) | antibiotic susceptibility value (host strain YMC15/09/R1869) | susceptibility test value (number given before S/I/R) (host strain YMC15/09/R1869)
S: antibiotic susceptibility class (host strain YMC14/01/R324) | antibiotic susceptibility class (host strain YMC14/01/R2945) | antibiotic susceptibility class (host strain YMC14/01/U313) | antibiotic susceptibility class (host strain YMC14/02/R2668) | antibiotic susceptibility class (host strain YMC14/02/R2758) | antibiotic susceptibility class (host strain YMC14/02/R3106) | antibiotic susceptibility class (host strain YMC14/03/P471) | antibiotic susceptibility class (host strain YMC14/03/R380) | antibiotic susceptibility class (host strain YMC14/03/R618) | antibiotic susceptibility class (host strain YMC14/04/R1080) | antibiotic susceptibility S/I/R (host strain YMC14/06/R2359) | susceptibility category (S/I/R) (host strain YMC14/06/R2359) | antibiotic susceptibility S/I/R (host strain YMC14/08/T90) | susceptibility category (S/I/R) (host strain YMC14/08/T90)
8: antibiotic susceptibility test value (host strain YMC14/01/R324) | antibiotic susceptibility test value (host strain YMC14/02/R2668) | antibiotic susceptibility test value (host strain YMC14/02/R2758) | antibiotic susceptibility test value (host strain YMC14/02/R3106) | antibiotic susceptibility test value (host strain YMC14/03/P471) | antibiotic susceptibility test value (host strain YMC14/03/R380) | antibiotic susceptibility test value (host strain YMC14/03/R618) | antibiotic susceptibility value (host strain YMC14/06/R2359) | susceptibility test value (number given before S/I/R) (host strain YMC14/06/R2359) | antibiotic susceptibility value (host strain YMC14/08/T90) | susceptibility test value (number given before S/I/R) (host strain YMC14/08/T90)
